From ChEMBL document CHEMBL4342517, “Design, Synthesis, and Mechanism Study of Benzenesulfonamide-Containing Phenylalanine Derivatives as Novel HIV-1 Capsid Inhibitors with Improved Antiviral Activities” (J Med Chem, 2020)
Active and inactive are the calls of the source. No cut-off for these calls is given here.

Legend:
TZM = assay: Cytotoxicity in uninfected human TZM-bl assessed as reduction in cell viability incubated for 1 day by Cyto-tox-Glo cytotoxicity assay; format: cell-based; details: 24 h
[1] = system: Human immunodeficiency virus 1; assay: Antiviral activity against HIV1 NL4-3 infected in human TZM-bl cells assessed as reduction in virus induced cytopathogenicity incubated for 1 day by luciferase reporter gene assay; format: functional, organism-based; details: Human immunodeficiency virus 1, NL4-3, TZM-bl, 24 h
[2] = biological target: Structural capsid protein (Human immunodeficiency virus 1) (UniProt Q76129); assay: Inhibition of HIV1 NL4-3 capsid protein assembly at 50 uM measured every 1 min for 19 mins
Sequence of Structural capsid protein (Human immunodeficiency virus 1) (Q76129 as listed by the source): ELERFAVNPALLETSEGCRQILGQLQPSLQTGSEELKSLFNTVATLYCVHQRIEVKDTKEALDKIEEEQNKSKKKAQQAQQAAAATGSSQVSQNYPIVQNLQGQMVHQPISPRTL

[3] = system: Human immunodeficiency virus 1; assay: Antiviral activity against HIV1 Env-pseudotyped virus in human U87.CD4.CCR5 target cells assessed as reduction in viral infection at late stage; format: functional, organism-based; details: Human immunodeficiency virus 1, U87/CD4/CCR5
[4] = system: Human immunodeficiency virus 1; assay: Antiviral activity against HIV1 Env-pseudotyped virus in human U87.CD4.CCR5 target cells assessed as reduction in viral infection at early stage; format: functional, organism-based; details: Human immunodeficiency virus 1, U87/CD4/CCR5
[5] = system: Human immunodeficiency virus 1; assay: Antiviral activity against HIV1 3B infected in human MT4 cells assessed as reduction in virus-induced cell death incubated for 5 days by MTT assay; format: functional, organism-based; details: Human immunodeficiency virus 1, 3B, MT4, 120 h
MT4 = assay: Cytotoxicity in mock-infected human MT4 assessed as reduction in cell viability incubated for 5 days by MTT assay; format: cell-based; details: mt4, 120 h
[6] = system: Human immunodeficiency virus 2; assay: Antiviral activity against HIV2 ROD infected in human MT4 cells assessed as reduction in virus-induced cell death incubated for 5 days by MTT assay; details: Human immunodeficiency virus 2, ISOLATE ROD, MT4, 120 h
[7] = biological target: T1, Structural capsid protein (Human immunodeficiency virus 1, UniProt Q76129); assay: Binding affinity to HIV1 NL4-3 capsid protein hexamer by SPR analysis
T1 sequence (Q76129 whole entry): as the sequence (Q76129 as listed by the source) above

[8] = biological target: T1, Structural capsid protein; assay: Binding affinity to HIV1 NL4-3 capsid protein monomer by SPR analysis
[9] = human, microsomes
Description: Intrinsic clearance in human liver microsomes in presence of NADPH regenerating system by LC-MS/MS analysis

[10] = human, microsomes; remark: listed apart in the source
Description: Half life in human liver microsomes in presence of NADPH regenerating system by LC-MS/MS analysis

[11] = Stability in human plasma assessed as compound remaining level at 2 uM incubated for 120 mins at 37 degC by LC-MS/MS analysis; format: ADME, cell-free; details: 2 h
[12] = system: Human immunodeficiency virus 1; assay: Induction of increase in CA/p24 content in HIV1 NL4-3 infected in human TZM-bl cells at 10 uM by ELISA relative to control; format: functional
[13] = biological target: Structural capsid protein (Human immunodeficiency virus 1) (UniProt Q76129); assay: Induction of HIV1 NL4-3 capsid protein assembly at 50 uM measured every 1 min for 19 mins

Row | SMILES | CC50 (TZM) | EC50 [1] | other results
1 | COc1ccc(N(C)C(=O)[C@H](Cc2ccccc2)NC(=O)CNS(=O)(=O)c2ccc([N+](=O)[O-])cc2)cc1 | > 38 µM | > 38 µM | 
2 | COc1ccc(N(C)C(=O)[C@H](Cc2ccccc2)NC(=O)CNS(=O)(=O)c2cccc(N)c2)cc1 | > 40.3 µM | 8.26 µM | 
3 | COc1ccc(N(C)C(=O)[C@H](Cc2ccccc2)NC(=O)CN2CCN(S(=O)(=O)c3ccc(F)cc3)CC2=O)cc1 | 25.7 µM | 1.06 µM | 
4 | COc1ccc(N(C)C(=O)[C@H](Cc2ccccc2)NC(=O)CNS(=O)(=O)c2ccccc2[N+](=O)[O-])cc1 | > 38 µM | 8.74 µM | 
5 | COc1ccc(N(C)C(=O)[C@H](Cc2ccccc2)NC(=O)CN2C(=O)Nc3ccc(OC)cc3S2(=O)=O)cc1 | > 36.2 µM | 4.89 µM | 
6 | COc1ccc(N(C)C(=O)[C@H](Cc2ccccc2)NC(=O)CNS(=O)(=O)c2cccc(F)c2)cc1 | > 40 µM | 5.61 µM | inhibition [2]: Active; IC50 [3]: 4.2 µM; IC50 [4]: 8.22 µM; EC50 [5]: 24.5 µM; CC50 (MT4): 136 µM; EC50 [6]: 20.1 µM
7 | COc1ccc(N(C)C(=O)[C@H](Cc2ccccc2)NC(=O)CN2C(=O)N(CC(=O)N[C@@H](Cc3ccccc3)C(=O)N(C)c3ccc(OC)cc3)S(=O)(=O)c3cc(F)ccc32)cc1 | > 23.1 µM | 3.82 µM | Kd [7]: 1.3 µM; Kd [8]: 0.2 µM
8 | COc1ccc(N(C)C(=O)[C@H](Cc2ccccc2)NC(=O)CN2CCN(S(=O)(=O)c3ccc([N+](=O)[O-])cc3)CC2=O)cc1 | > 32.8 µM | 0.3 µM | EC50 [5]: 4.9 µM; CC50 (MT4): 8.89 µM; EC50 [6]: 0.16 µM
9 | COc1ccc(N(C)C(=O)[C@H](Cc2ccccc2)NC(=O)CNS(=O)(=O)c2cccc([N+](=O)[O-])c2)cc1 | > 38 µM | 8.93 µM | 
10 | COc1ccc(N(C)C(=O)[C@H](Cc2ccccc2)NC(=O)CN2CCN(S(=O)(=O)c3ccccc3[N+](=O)[O-])CC2=O)cc1 |  | 1 µM | 
11 | COc1ccc(N(C)C(=O)[C@H](Cc2ccccc2)NC(=O)CN2C(=O)Nc3ccc(C)cc3S2(=O)=O)cc1 | > 37.3 µM | 5.96 µM | 
12 | COc1ccc(N(C)C(=O)[C@H](Cc2ccccc2)NC(=O)CN2C(=O)Nc3ccccc3S2(=O)=O)cc1 | > 38.3 µM | 2.11 µM | inhibition [2]: Active; IC50 [3]: 2.44 µM; IC50 [4]: 1.94 µM; EC50 [5]: 6.07 µM; CC50 (MT4): 130 µM; EC50 [6]: 2.72 µM
13 | COc1ccc(N(C)C(=O)[C@H](Cc2ccccc2)NC(=O)CN2C(=O)N(CC(=O)N[C@@H](Cc3ccccc3)C(=O)N(C)c3ccc(OC)cc3)S(=O)(=O)c3cc(Cl)ccc32)cc1 | > 22.7 µM | 4.77 µM | 
14 | COc1ccc(N(C)C(=O)[C@H](Cc2ccccc2)NC(=O)CN2CCN(S(=O)(=O)c3ccc(OC)cc3)CC2=O)cc1 | > 33.6 µM | 0.64 µM | 
15 | COc1ccc(N(C)C(=O)[C@H](Cc2ccccc2)NC(=O)CN2CCN(S(=O)(=O)c3ccccc3)CC2=O)cc1 | > 35.4 µM | 0.37 µM | EC50 [5]: 0.71 µM; CC50 (MT4): 109 µM; EC50 [6]: 0.032 µM
16 | COc1ccc(N(C)C(=O)[C@H](Cc2ccccc2)NC(=O)CN2CCN(S(=O)(=O)c3cccc([N+](=O)[O-])c3)CC2=O)cc1 | > 32.8 µM | 0.67 µM | 
17 | O=C(O)Cc1ccccc1Nc1c(Cl)cccc1Cl [DICLOFENAC] |  |  | CLH [9]: 93.6 µL/min/mg; t1/2 [10]: 14.8 min
18 | COc1ccc(N(C)C(=O)[C@H](Cc2ccccc2)NC(=O)CNS(=O)(=O)c2ccccc2)cc1 | > 41.5 µM | 6.23 µM | 
19 | COc1ccc(N(C)C(=O)[C@H](Cc2ccccc2)NC(=O)CNS(=O)(=O)c2ccc(F)cc2)cc1 | > 40 µM | 6.81 µM | 

Row | SMILES | CC50 (TZM) | EC50 [1] | other results
20 | COc1ccc(N(C)C(=O)[C@H](Cc2ccccc2)NC(=O)CN2CCN(S(=O)(=O)c3ccc(C)cc3)CC2=O)cc1 | > 34.6 µM | 0.5 µM | 
21 | COc1ccc(N(C)C(=O)[C@H](Cc2ccccc2)NC(=O)CNS(=O)(=O)c2ccc(OC)cc2)cc1 | > 39.1 µM | 10.4 µM | 
22 | COc1ccc(N(C)C(=O)[C@H](Cc2ccccc2)NC(=O)CNS(=O)(=O)c2ccccc2N)cc1 | > 40.3 µM | 9.06 µM | 
23 | COc1ccc(N(C)C(=O)[C@H](Cc2ccccc2)NC(=O)CN2CCN(S(=O)(=O)c3ccccc3F)CC2=O)cc1 | > 34.3 µM | 0.48 µM | 
24 | COc1ccc(N(C)C(=O)[C@H](Cc2ccccc2)NC(=O)CN2C(=O)N(CC(=O)N[C@@H](Cc3ccccc3)C(=O)N(C)c3ccc(OC)cc3)S(=O)(=O)c3cc(Br)ccc32)cc1 | > 21.6 µM | 5.62 µM | 
25 | COc1ccc(N(C)C(=O)[C@H](Cc2ccccc2)NC(=O)CNS(=O)(=O)c2ccccc2F)cc1 | > 40 µM | 10.8 µM | 
26 | COc1ccc(N(C)C(=O)[C@H](Cc2ccccc2)NC(=O)CN2CCN(S(=O)(=O)c3cccc(N)c3)CC2=O)cc1 | > 34.5 µM | 0.33 µM | Kd [7]: 3.02 µM; Kd [8]: 10 µM
27 | Cc1[nH]c2ccccc2c1CC(=O)N[C@@H](Cc1ccccc1)C(=O)N(C)c1ccccc1 | > 47 µM |  | Stability [11]: 69%; Activity [12]: 40%; IC50 [3]: 0.23 µM; IC50 [4]: 0.056 µM; Activity [13]: Active; CC50 (MT4): 145 µM; CLH [9]: 1080.3 µL/min/mg
28 | COc1ccc(N(C)C(=O)[C@H](Cc2ccccc2)NC(=O)CN2CCN(S(=O)(=O)c3ccc(Cl)cc3)CC2=O)cc1 | > 33.4 µM | 1.05 µM | 
29 | COc1ccc(N(C)C(=O)[C@H](Cc2ccccc2)NC(=O)CN2CCN(S(=O)(=O)c3cccc(F)c3)CC2=O)cc1 | > 34.3 µM | 0.45 µM | 
30 | COc1ccc(N(C)C(=O)[C@H](Cc2ccccc2)NC(=O)CNS(=O)(=O)c2ccc(N)cc2)cc1 | > 40.3 µM | 6.65 µM | 
31 | COc1ccc(N(C)C(=O)[C@H](Cc2ccccc2)NC(=O)CNS(=O)(=O)c2c(C)cc(C)cc2C)cc1 | > 38.2 µM | 10.7 µM | 
32 | COc1ccc(N(C)C(=O)[C@H](Cc2ccccc2)NC(=O)CN2CCN(S(=O)(=O)c3ccccc3N)CC2=O)cc1 | > 34.5 µM | 0.54 µM | 
33 | COc1ccc(N(C)C(=O)[C@H](Cc2ccccc2)NC(=O)CNS(=O)(=O)c2ccc(C)cc2)cc1 | > 40.4 µM | 6.26 µM | 
34 | COc1ccc(N(C)C(=O)[C@H](Cc2ccccc2)NC(=O)CNS(=O)(=O)c2cc(C)cc(C)c2)cc1 | > 39.2 µM | 9.22 µM | 
35 | COc1ccc(N(C)C(=O)[C@H](Cc2ccccc2)NC(=O)CNS(=O)(=O)c2c(C(C)C)cc(C(C)C)cc2C(C)C)cc1 | > 32.9 µM | 7.9 µM | 
36 | COc1ccc(N(C)C(=O)[C@H](Cc2ccccc2)NC(=O)CN2CCN(S(=O)(=O)c3ccc(Br)cc3)CC2=O)cc1 | > 31.1 µM | 0.36 µM | 
37 | COc1ccc(N(C)C(=O)[C@H](Cc2ccccc2)NC(=O)CNS(=O)(=O)c2ccc(Br)cc2)cc1 | > 35.7 µM | 8.21 µM | 
38 | COc1ccc(N(C)C(=O)[C@H](Cc2ccccc2)NC(=O)CNS(=O)(=O)c2ccc(Cl)cc2)cc1 | > 38.8 µM | 9.88 µM | 
